This test deals with recombinant Human Phosphodiesterase B2 (PDE4B2) (Homo sapiens, UniProt Q07343). The test is described as follows: Human Phosphodiesterase B2 Radiometric Assay. The test is classed as biochemical. The following applies: 0.1 μg/mL recombinant PDE4B2; preincubated at 30 C for 30 min; [3H]cyclic AMP 8 nM, stopped after 20 min; yttrium silicate SPA beads; read-out: PDE4B2 pIC50 (converted). In a few lines: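 SPA read-out: product 5′AMP binds yttrium silicate beads (added with 18 mM ZnSO4 after 20 min) in preference to [3H]cAMP substrate, given at 8 nM final.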
Chain of recombinant Human Phosphodiesterase B2 (PDE4B2) (Q07343 1-564 isoform Q07343-2): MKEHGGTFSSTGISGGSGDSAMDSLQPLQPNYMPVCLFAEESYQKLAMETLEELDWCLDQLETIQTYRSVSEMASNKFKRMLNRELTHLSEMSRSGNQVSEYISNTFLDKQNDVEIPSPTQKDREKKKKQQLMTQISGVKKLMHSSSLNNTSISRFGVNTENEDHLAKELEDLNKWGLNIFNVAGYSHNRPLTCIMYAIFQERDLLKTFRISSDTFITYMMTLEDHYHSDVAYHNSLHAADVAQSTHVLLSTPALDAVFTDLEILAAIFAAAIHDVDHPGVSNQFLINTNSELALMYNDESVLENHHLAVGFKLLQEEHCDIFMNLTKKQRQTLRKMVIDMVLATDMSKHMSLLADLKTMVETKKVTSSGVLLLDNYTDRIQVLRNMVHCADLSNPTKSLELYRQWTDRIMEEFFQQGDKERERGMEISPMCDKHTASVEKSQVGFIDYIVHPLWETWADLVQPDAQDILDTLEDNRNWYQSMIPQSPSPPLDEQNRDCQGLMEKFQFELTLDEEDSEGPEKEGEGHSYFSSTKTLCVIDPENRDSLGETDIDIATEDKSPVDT

In the case of `C[C@@H]1CN(Cc2ccc(-c3cccc(Oc4ncc(F)cc4C(=O)N[C@H]4CC[C@@H](NC(=O)c5cc6ccccn6n5)CC4)c3)cc2O)C[C@H](C)N1` [Example 97, N-((1s,4s)-4-(2-(4′-(((3S,5R)-3,5-dimethylpiperazin-1-yl)methyl)-3′-hydroxybiphenyl-3-yloxy)-5-fluoronicotinamido)cyclohexyl)pyrazolo[1,5-a]pyridine-2-carboxamide], the IC50 was 0.126 nM.

Regarding `O=C(N[C@H]1CC[C@@H](NC(=O)c2cc(F)cnc2Oc2cccc(-c3ccc(CN4CCNCC4)cc3)c2)CC1)c1cn2c(n1)CCCC2` [Example 1, N-((1s,4s)-4-(5-fluoro-2-(4′-(piperazin-1-ylmethyl)biphenyl-3-yloxy)nicotinamido)cyclohexyl)-5,6,7,8-tetrahydroimidazo[1,2-a]pyridine-2-carboxamide], the IC50 is 0.126 nM.

For `O=C(N[C@H]1CC[C@@H](NC(=O)c2cc(F)cnc2Oc2cccc(-c3ccc(CCCN4CCNCC4)cc3)c2)CC1)c1cn2c(n1)CCCC2` [Example 137, N-((1s,4s)-4-(5-fluoro-2-(4′-(3-(piperazin-1-yl)propyl)biphenyl-3-yloxy)nicotinamido)cyclohexyl)-5,6,7,8-tetrahydroimidazo[1,2-a]pyridine-2-carboxamide], the IC50 was 0.0501 nM.

Regarding `Cc1cccc2nc(C(=O)N[C@H]3CC[C@@H](NC(=O)c4cc(F)cnc4Oc4cccc(-c5ccc(CN6C[C@@H](C)N[C@@H](C)C6)cc5CN5CCOCC5)c4)CC3)cn12` [Example 123, N-((1s,4s)-4-(2-(4′-(((3S,5R)-3,5-dimethylpiperazin-1-yl)methyl)-2′-(morpholinomethyl)biphenyl-3-yloxy)-5-fluoronicotinamido)cyclohexyl)-5-methylimidazo[1,2-a]pyridine-2-carboxamide], the IC50 was 0.0631 nM.

For `C[C@@H]1CN(Cc2ccc(-c3cccc(Oc4ncc(F)cc4C(=O)N[C@H]4CC[C@@H](NC(=O)c5cn6cc(F)ccc6n5)CC4)c3)c(CN3CCOCC3)c2)C[C@H](C)N1` [Example 122, N-((1s,4s)-4-(2-(4′-(((3S,5R)-3,5-dimethylpiperazin-1-yl)methyl)-2′-(morpholinomethyl)biphenyl-3-yloxy)-5-fluoronicotinamido)cyclohexyl)-6-fluoroimidazo[1,2-a]pyridine-2-carboxamide], the IC50 was 0.0398 nM.

Take `Cc1nc(C(=O)N[C@H]2CC[C@@H](NC(=O)c3cc(F)cnc3Oc3cccc(-c4ccc(O)cc4CN4CCOCC4)c3)CC2)cs1` [Example 34, N-((1s,4s)-4-(5-fluoro-2-(4′-hydroxy-2′-(morpholinomethyl)biphenyl-3-yloxy)nicotinamido)cyclohexyl)-2-methylthiazole-4-carboxamide]: the IC50 was 0.0251 nM.

On to `C[C@@H]1CN(CCCc2cccc(-c3cccc(Oc4ncc(F)cc4C(=O)N[C@H]4CC[C@@H](NC(=O)c5cc6n(n5)CCC6)CC4)c3)c2)C[C@H](C)N1` [Example 172, N-((1s,4s)-4-(2-(3′-(3-((3S,5R)-3,5-Dimethylpiperazin-1-yl)propyl)biphenyl-3-yloxy)-5-fluoronicotinamido)cyclohexyl)-5,6-dihydro-4H-pyrrolo[1,2-b]pyrazole-2-carboxamide], for which the IC50 was 0.0631 nM.

Take `Cc1cccc2nc(C(=O)N[C@H]3CC[C@@H](NC(=O)c4cc(F)cnc4Oc4cccc(-c5ccc(CN6C[C@@H](C)N[C@@H](C)C6)cc5)c4)CC3)cn12` [Example 48, N-((1s,4s)-4-(2-(4′-(((3S,5R)-3,5-dimethylpiperazin-1-yl)methyl)biphenyl-3-yloxy)-5-fluoronicotinamido)cyclohexyl)-5-methylimidazo[1,2-a]pyridine-2-carboxamide]: the IC50 was 0.0631 nM.

Take `Cc1nc(C(=O)N[C@H]2CC[C@@H](NC(=O)c3cc(F)cnc3Oc3cccc(-c4ccc(O)cc4CN4CCCCCC4)c3)CC2)cs1` [Example 23, N-((1s,4s)-4-(2-(2′-(azepan-1-ylmethyl)-4′-hydroxybiphenyl-3-yloxy)-5-fluoronicotinamido)cyclohexyl)-2-methylthiazole-4-carboxamide]: the IC50 was 0.316 nM.

For `C[C@@H]1CN(Cc2ccc(-c3cccc(Oc4ncc(F)cc4C(=O)N[C@H]4CC[C@@H](NC(=O)c5cccc6[nH]cnc56)CC4)c3)c(CN3CCSCC3)c2)C[C@H](C)N1` [Example 202, N-((1s,4s)-4-(2-(4′-(((3S,5R)-3,5-dimethylpiperazin-1-yl)methyl)-2′-(thiomorpholinomethyl)biphenyl-3-yloxy)-5-fluoronicotinamido)cyclohexyl)-1H-benzo[d]imidazole-4-carboxamide], the IC50 was 0.0126 nM.

Take `Cc1nc(C(=O)N[C@H]2CC[C@@H](NC(=O)c3cc(F)cnc3Oc3cccc(-c4ccc(O)cc4CN4CCCOCC4)c3)CC2)cs1` [Example 15, N-((1s,4s)-4-(2-(2′-((1,4-oxazepan-4-yl)methyl)-4′-hydroxybiphenyl-3-yloxy)-5-fluoronicotinamido)cyclohexyl)-2-methylthiazole-4-carboxamide]: the IC50 is 0.02 nM.

As to `C[C@@H]1CN(Cc2cccc(-c3cccc(Oc4ncc(F)cc4C(=O)N[C@H]4CC[C@@H](NC(=O)c5cc6ccccn6n5)CC4)c3)c2)C[C@H](C)N1` [Example 151, N-((1s,4s)-4-(2-(3′-(((3S,5R)-3,5-dimethylpiperazin-1-yl)methyl)biphenyl-3-yloxy)-5-fluoronicotinamido)cyclohexyl)pyrazolo[1,5-a]pyridine-2-carboxamide], the IC50 is 0.0631 nM.

In the case of `Cc1csc(C(=O)N[C@H]2CC[C@@H](NC(=O)c3cc(F)cnc3Oc3cccc(-c4ccc(CCN5CCNCC5)cc4)c3)CC2)n1` [Example 184, N-((1s,4s)-4-(5-Fluoro-2-(4′-(2-(piperazin-1-yl)ethyl)biphenyl-3-yloxy)nicotinamido)cyclohexyl)-4-methylthiazole-2-carboxamide], the IC50 is 0.0398 nM.

In the case of `Cc1cccc2nc(C(=O)N[C@H]3CC[C@@H](NC(=O)c4cc(F)cnc4Oc4cccc(-c5ccc(CN6CCC(N7CCCC7)CC6)cc5)c4)CC3)cn12` [Example 109, N-((1s,4s)-4-(5-fluoro-2-(4′-((4-(pyrrolidin-1-yl)piperidin-1-yl)methyl)biphenyl-3-yloxy)nicotinamido)cyclohexyl)-5-methylimidazo[1,2-a]pyridine-2-carboxamide], the IC50 was 0.0631 nM.

Take `Cc1cc(C(=O)N[C@H]2CC[C@@H](NC(=O)c3cc(F)cnc3Oc3cccc(-c4ccc(CCCN5C[C@@H](C)N[C@@H](C)C5)cc4)c3)CC2)nn1C` [Example 81, N-((1s,4s)-4-(1,5-dimethyl-1H-pyrazole-3-carboxamido)cyclohexyl)-2-(4′-(3-((3S,5R)-3,5-dimethylpiperazin-1-yl)propyl)biphenyl-3-yloxy)-5-fluoronicotinamide]: the IC50 was 0.0316 nM.

As to `Cc1nc(C(=O)N[C@H]2CC[C@@H](NC(=O)c3cc(F)cnc3Oc3cccc(-c4ccc(CCN5CCC(N6CCCC6)CC5)cc4)c3)CC2)cs1` [Example 112, N-((1s,4s)-4-(5-fluoro-2-(4′-(2-(4-(pyrrolidin-1-yl)piperidin-1-yl)ethyl)biphenyl-3-yloxy)nicotinamido)cyclohexyl)-2-methylthiazole-4-carboxamide], the IC50 is 0.0398 nM.

Source of the values: patent US8273774B2, “Phenoxypyridinylamide compounds” (AstraZeneca AB, priority 2008, dated 2012).
